From patent US20060058286A1, “Methods of treating HIV infection” (priority 2004, published 2006)

Experiments:
HIV-1 NL4-3 [1] = assay: microbe, parasite or virus in culture
Procedure: (§1) Virus and cell lines. The T-cell line, MT-2 was obtained through the AIDS Research and Reference Reagent Program, NIAID and was contributed by Dr. D. Richman. The cell line was cultured in RPMI 1640 medium supplemented with 10% fetal bovine serum, 2 mM L-glutamine and sub-cultured twice a week. The NL4-3 strain of HIV-1 was obtained from the AIDS Research and Reference Reagent Program. Both virus stocks were amplified and titered in MT-2 cells using a virus infectivity assay.
(§2) Drug Susceptibility and Cytotoxicity Assays. For drug susceptibility assays, MT-2 cells were infected with HIV-1 NL4-3 at an MOI of 0.001, and seeded into 96-well microtiter plates (2.5×10^5 cells/ml) containing serial dilutions of test compounds. […] Each drug ratio consisted of an array of 3-fold serial dilutions, and was performed in quadruplicate. The plates were incubated at 37° C./5% CO2. The MT-2 cells infected with HIV-1 NL4-3 were incubated for 5 days. On day-five post-infection, 20 μl from each well was harvested and quantitated by a reverse transcriptase (RT) assay or an MTS assay. Cytotoxicity assays were performed using uninfected cells, exposed to the same drug combinations, and incubated for five days. Cell viability was determined by an XTT assay. The CC50 values were calculated by using the exponential form of the median effect equation as mentioned below for calculation of EC50.
(§3) In this equation, Fa stands for “fraction affected,” and represents the fraction of the viral load that has been inactivated.
In carrying out the combination experiments below, the EC50 for Compound 1 and each comparator compound was determined during the course of each study, and used in the subsequent data analysis.

HIV-1 NL4-3 [2] = assay: Two-drug combination study with Compound 1 (combination indices); format: cell-based; details: for Combination Indices at 50% HIV Inhibition (Confidence Interval) / Combination Indices at 75% HIV Inhibition (Confidence Interval) / Combination Indices at 90% HIV Inhibition (Confidence Interval): 95% CI in parentheses; for Overall Result: overall antiviral effect of the two-drug combination with Compound 1, all ratios and effective levels
Procedure: as §1, §2
Analysis of Drug Combination Effects. For determination of CI values, drugs were diluted in a fixed ratio and multiple ratios were analyzed. The drug serial dilutions spanned a range of concentrations near the EC50 value of each compound, so that equivalent antiviral activities could be compared. Concentration-response curves were estimated for each individual drug and every combination using the median-effect equation. The equation was fit using a nonlinear regression routine (Proc Nlin) in PC SAS version 8.01 (SAS Institute Inc., SAS Version 8.01, Cary, N.C.: SAS Institute Inc., 1990).
as §3
To assess antiviral effects of different drug combination treatments, combination indices (CIs) were calculated according to Chou and Rideout. The combination index was computed as CI=[D]1/[Dm]1+[D]2/[Dm]2
In this equation [Dm]1 and [Dm]2 are the concentrations of drugs that would individually produce a specific level of effect, while [D]1 and [D]2 are the concentrations of drugs in combination that would produce the same level of effect.
Theoretically, additivity is implied if the CI is equal to one, synergy if the CI is less than one, and antagonism if the CI is greater than one. […] At best, we can construct a range that contains the likely values for the CI, given the noise in the data. In this report, these ranges are reported in parentheses next to each point estimate of the CI. […] If the range fell entirely above 1.0, we would infer antagonistic behavior. If the range were to include 1.0, we would infer additivity.

[3] = Human immunodeficiency virus 1, NL43, MT2, 120 h
[4] = combination with Compound 1, EC50 ratio 1:1 (Compound 1:comparator)
[5] = combination with Compound 1, EC50 ratio 1:2.5 (Compound 1:comparator)
[6] = combination with Compound 1, EC50 ratio 2.5:1 (Compound 1:comparator)

In the case of `Nc1ccn([C@H]2CC[C@@H](CO)O2)c(=O)n1` [Zalcitabine, zalcitabine], the EC50 (HIV-1 NL4-3 [1]; [3]) is reported as 120 nM, the “Combination Indices at 50% HIV Inhibition (Confidence Interval)” value (HIV-1 NL4-3 [2]; [4]) is reported as 0.79 (0.64, 0.94) and the “Combination Indices at 75% HIV Inhibition (Confidence Interval)” value (HIV-1 NL4-3 [2]; [4]) is reported as 0.75 (0.55, 0.96). The “Combination Indices at 90% HIV Inhibition (Confidence Interval)” value (HIV-1 NL4-3 [2]; [4]) was 0.72 (0.42, 1.02), the “Combination Indices at 50% HIV Inhibition (Confidence Interval)” value (HIV-1 NL4-3 [2]; [5]) was 0.83 (0.70, 0.95) and the “Combination Indices at 75% HIV Inhibition (Confidence Interval)” value (HIV-1 NL4-3 [2]; [5]) was 0.70 (0.56, 0.85). The “Combination Indices at 90% HIV Inhibition (Confidence Interval)” value (HIV-1 NL4-3 [2]; [5]) was 0.60 (0.41, 0.80), the “Combination Indices at 50% HIV Inhibition (Confidence Interval)” value (HIV-1 NL4-3 [2]; [6]) was 0.85 (0.75, 0.95) and the “Combination Indices at 75% HIV Inhibition (Confidence Interval)” value (HIV-1 NL4-3 [2]; [6]) was 0.72 (0.61, 0.84). The “Combination Indices at 90% HIV Inhibition (Confidence Interval)” value (HIV-1 NL4-3 [2]; [6]) was 0.61 (0.46, 0.77), the “Overall Result” value (HIV-1 NL4-3 [2]) was “Synergistic” and the “Overall Result” value (HIV-1 NL4-3 [2]; listed as zalcitabine) was “synergistic”.
For `Cc1cn([C@H]2C[C@H](N=[N+]=[N-])[C@@H](CO)O2)c(=O)[nH]c1=O` [Zidovudine, zidovudine], the EC50 (HIV-1 NL4-3 [1]; [3]) was 2 nM, the “Combination Indices at 50% HIV Inhibition (Confidence Interval)” value (HIV-1 NL4-3 [2]; [4]) was 0.21 (0.16, 0.26) and the “Combination Indices at 75% HIV Inhibition (Confidence Interval)” value (HIV-1 NL4-3 [2]; [4]) was 0.15 (0.10, 0.20). The “Combination Indices at 90% HIV Inhibition (Confidence Interval)” value (HIV-1 NL4-3 [2]; [4]) was 0.12 (0.06, 0.18), the “Combination Indices at 50% HIV Inhibition (Confidence Interval)” value (HIV-1 NL4-3 [2]; [5]) was 0.33 (0.26, 0.40) and the “Combination Indices at 75% HIV Inhibition (Confidence Interval)” value (HIV-1 NL4-3 [2]; [5]) was 0.23 (0.16, 0.29). The “Combination Indices at 90% HIV Inhibition (Confidence Interval)” value (HIV-1 NL4-3 [2]; [5]) was 0.16 (0.09, 0.24), the “Combination Indices at 50% HIV Inhibition (Confidence Interval)” value (HIV-1 NL4-3 [2]; [6]) was 0.21 (0.18, 0.24) and the “Combination Indices at 75% HIV Inhibition (Confidence Interval)” value (HIV-1 NL4-3 [2]; [6]) was 0.16 (0.12, 0.19). For the same compound, the “Combination Indices at 90% HIV Inhibition (Confidence Interval)” value (HIV-1 NL4-3 [2]; [6]) was 0.13 (0.08, 0.17), the “Overall Result” value (HIV-1 NL4-3 [2]) was “Synergistic” and the “Overall Result” value (HIV-1 NL4-3 [2]; listed as zidovudine) was “synergistic”.
With enfuvirtide the EC50 (HIV-1 NL4-3 [1]; NL4-3) was 7 nM, the “Combination Indices at 50% HIV Inhibition (Confidence Interval)” value (HIV-1 NL4-3 [2]; [4]) was 0.74 (0.58, 0.89) and the “Combination Indices at 75% HIV Inhibition (Confidence Interval)” value (HIV-1 NL4-3 [2]; [4]) was 0.95 (0.67, 1.24). For the same compound, the “Combination Indices at 90% HIV Inhibition (Confidence Interval)” value (HIV-1 NL4-3 [2]; [4]) was 1.25 (0.66, 1.83), the “Combination Indices at 50% HIV Inhibition (Confidence Interval)” value (HIV-1 NL4-3 [2]; [5]) was 0.72 (0.55, 0.89) and the “Combination Indices at 75% HIV Inhibition (Confidence Interval)” value (HIV-1 NL4-3 [2]; [5]) was 0.69 (0.46, 0.91). For the same compound, the “Combination Indices at 90% HIV Inhibition (Confidence Interval)” value (HIV-1 NL4-3 [2]; [5]) was 0.68 (0.33, 1.02), the “Combination Indices at 50% HIV Inhibition (Confidence Interval)” value (HIV-1 NL4-3 [2]; [6]) was 1.04 (0.82, 1.27) and the “Combination Indices at 75% HIV Inhibition (Confidence Interval)” value (HIV-1 NL4-3 [2]; [6]) was 0.95 (0.66, 1.24). The “Combination Indices at 90% HIV Inhibition (Confidence Interval)” value (HIV-1 NL4-3 [2]; [6]) was 0.87 (0.45, 1.29), the “Overall Result” value (HIV-1 NL4-3 [2]) was “Additive-” and the “Overall Result” value (HIV-1 NL4-3 [2]; listed as T-20) was “synergistic to additive”.
